From PMC10961089, “Epidermal growth factor receptor inhibition potentiates chemotherapeutics‐mediated sensitization of metastatic breast cancer stem cells” (Cancer Reports, 2024) come the findings set out here.

In assay [1] the test system is MDA‐MB‐231. The experiment in a line: MTT cytotoxicity assay in MDA-MB-231. Conditions: compound alone, MTT, 48 h; read-out: IC50 (μM) in MDA‐MB‐231 (mean ± SD). Format: cell-based, human. As to the method: TNBC cell lines (ER^−, PR^−, HER2^−)—MDA‐MB‐231 (ATCC HTB‐26) and MDA‐MB‐468 (ATCC HTB‐132) were procured from ATCC and cultured in Roswell Park Memorial Institute Media (RPMI‐1640) and Dulbecco's Modified Eagle's Medium (DMEM), respectively, supplemented with 10% FBS and 1% Penicillin–Streptomycin solution. Cells were maintained at 5% CO2 at 37°C in a humid atmosphere.[6], [26] The control cell line, Human Embryonic Kidney—HEK‐293 (ATCC CRL‐3216) was also obtained from ATCC and cultured in DMEM.[5], [25]
To evaluate the cytotoxicity profile of the potential EGFR inhibitors (compounds) against TNBC cell lines—MDA‐MB‐231, MDA‐MB‐468, and control cell line HEK293, cells were seeded at a cell density of 5 × 10^3 cells/well in complete medium onto 96‐well plates. Here, the non‐tumoral human embryonic kidney (HEK293) epithelial cells have been utilized as a control cell line to compare the IC50 values of the compounds between cancerous and non‐cancerous cell lines with a big therapeutic window. The use of HEK293 cells as compared to other non‐cancerous cell lines are easy to maintain in culture and the results obtained from HEK293 are highly reproducible and consistent.[27] Briefly, the cells were incubated at 37°C for 12 h to attain morphology. After 12 h, cells were serum starved by replacing the complete media with media containing 2% FBS to synchronize the cells. Post‐12 h of synchronization, cells were treated with an increasing concentration (0.1, 1, 10, 100 μM) of all the compounds (1a, 1b, 1c, 1d, 1e, 1f, 1g, 1h, 1i, 1j, 1k). Separately, TNBC cells were treated with increasing concentration (0.01, 0.1, 1 μM) of Doxorubicin (Sigma‐Aldrich, St Louis, MO, USA) in presence of the selected compounds (1c, 1e, 1g, 1h, 1j, and 1k) at 5 μM concentration or combination of selected compounds (1c, 1e, 1g, 1h, 1j, and 1k) at increasing concentration (1, 2.5, 5, 10 μM) in presence of Doxorubicin (0.01 μM) for 48 h. In addition, the CD24^+‐breast cancer cells and CD24^−/CD44^+‐breast CSC populations, being sorted by Magnetic Activated Cell Sorting (MACS) from MDA‐MB‐231 cells as described previously,[6] were also treated with increasing concentrations of Doxorubicin (0.01–1 μM), in the presence or absence of 1e (10–30 μM), or PD153035 (10 μM) (Sigma‐Aldrich, St Louis, MO, USA). MTT assay was performed to evaluate the cytotoxicity of these compounds against the TNBC cell lines, and the sorted populations as described previously.[6] All the experiments were performed thrice and the IC50 values of the compounds and Doxorubicin were calculated using GraphPad Prism software version 9 (San Diego, CA, USA). Similarly, the percent inhibition of the sorted cell populations by chemotherapeutic drug, doxorubicin in the absence/presence of potent compound 1e or standard EGFR inhibitor, PD153035 was evaluated utilizing GraphPad Prism Version 9 (San Diego, CA, USA).

Assay [2] relates to MDA‐MB‐231. The experiment in a line: Cell migration (chemotaxis), Boyden-Chamber assay. Type of assay: cell-based, human. Conditions: Doxorubicin 0.01 μM + compound 5 μM (PD153035 10 μM) vs 10% FBS and Doxorubicin alone. As to the method:
(§1) TNBC cell lines—MDA‐MB‐231, MDA‐MB‐468, and the sorted CD24^+‐breast cancer cells, and CD24^−/CD44^+‐breast CSC populations from MDA‐MB‐231 [6] were seeded at a density of 1 × 10^6 cells/well to evaluate their migratory potential by Boyden‐Chamber assay. […] At the end of the treatment period, the cells were plated at a density of 5 × 10^3 cells/well in the upper chamber of the Boyden chamber assembly and 10% FBS in the lower chamber was used as a chemoattractant. Separately, the cells in the upper chamber were treated with Doxorubicin (0.01–0.1 μM) alone or with the potential EGFR inhibitors (compounds—1c, 1e, 1g, 1h, 1j, and 1k (5 μM) based on their low IC50 values) or a commercial EGFR inhibitor, PD153035 (10 μM) and incubated for 4 h followed by fixation and staining as described previously.[28], [29]

Another assay deals with MDA‐MB‐468. The experiment in a line: Cell migration (chemotaxis), Boyden-Chamber assay. Type of assay: cell-based, human. To be noted: Doxorubicin 0.01 μM + compound 5 μM (PD153035 10 μM) vs 10% FBS and Doxorubicin alone. On the procedure:
as §1

The test system of assay [3] is Bax and Cytochrome‐C in MDA‐MB‐231 cells. The experiment in a line: Gene expression of apoptotic genes, semi-quantitative RT-PCR. Format: cell-based, human. To be noted: MDA-MB-231, doxorubicin + compound 5 μM, 24 h. On the procedure: Briefly, the cells were incubated at 37°C with serum starvation followed by culturing as described above. […] Briefly, the template RNA (1 μg) was utilized for cDNA synthesis using a First‐strand cDNA synthesis kit (Thermo Scientific, USA) according to the manufacturer's protocol. Thermal cycler (Mastercycler® nexus, Eppendorf) was used for the amplification of the expression of apoptotic genes—Bax, Bcl2, Cytochrome‐C, and target gene EGFR with the help of Dream Taq DNA Polymerase PCR Master Mix (Thermo Scientific, USA) along with human gene‐specific forward and reverse primer sequences of the apoptotic genes and EGFR (Table ST1). The expression of the target genes was normalized to the Eukaryotic 18S rRNA.

For assay [4], the system named is CD24^−/CD44^+‐breast CSCs xenotransplanted tumors. The experiment in a line: Preclinical orthotopic xenograft murine tumor model (tumor size, weight, H&E histology). Type of assay: in vivo, C57BL/6 mice. As to the method:
Animal studies have been carried out with the prior approval of the Institutional Animal Ethics Committee (IICT/IAEC/025/2023). C57BL/6 female mice of age 6–8 weeks (N = 35) were initially immunosuppressed with cyclophosphamide (50 mg/kg of body weight, i.p) on alternate days for 2 weeks. For generating a preclinical orthotopic xenograft tumor model, 2 × 10^6 GFP expressing sorted stable CD24^+‐breast cancer cells and CD24^−/CD44^+‐breast CSCs were orthotopically xeno‐transplanted subcutaneously at the fourth mammary fat pad of immune‐suppressed mice (n = 5/group). Subsequently, intratumoral administration of Doxorubicin at a low dose (2.5 mg/kg of body weight), high dose (10 mg/kg of body weight), and/or combinatorial treatment of the potent EGFR inhibitor, compound 1e (50 mg/kg of body weight) or the commercial EGFR inhibitor, PD153035 (50 mg/kg of body weight) with a low dose of doxorubicin was performed to the palpable tumors of breast CSCs at day‐3 post‐transplantation.
Euthanization of mice was performed on day 14 post‐transplantation and tumor tissues were collected for histological and immunohistochemical analysis. Histological differences in tumor tissues were evaluated using hematoxylin and eosin staining (H&E).[28], [30]

As usually defined, the IC50 is the point on the concentration scale where inhibition reaches its midpoint. Turning to `c1cncc(C(c2c[nH]c3ccccc23)c2c[nH]c3ccccc23)c1` [1e], in the assay with MDA‐MB‐231 [1], the IC50 is 18.6 ± 1.84 µM. Also, the migratory potential entry in the assay with MDA‐MB‐231 [2] and in the assay with MDA‐MB‐468 was “significant decrease” throughout. Also, in assay [3], the “expression of pro‐apoptotic genes Bax and Cytochrome‐C” value is “marked increase”. The “tumorigenicity (H&E histology)” value in assay [4] (50 mg/kg + low dose doxorubicin 2.5 mg/kg, CSC xenograft) is “significant decrease”. In addition, the “histopathological finding in tumor tissue” value in assay [4] (50 mg/kg + low dose doxorubicin 2.5 mg/kg, CSC xenograft, day 14) is on record as “no tumor mass”. In assay [4] (intratumoral, 50 mg/kg + doxorubicin low dose 2.5 mg/kg vs low dose doxorubicin alone, CD24^−/CD44^+ CSC xenograft), the tumor size entry is “significantly decreased”.
